Test results published in patent US11629171B2, “Beta-hairpin peptidomimetics” (POLYPHOR AG, priority 2017, dated 2023).
In brackets after ≈: the same amount, converted by molar mass. Where a SMILES comes first, the peptide text is derived from it. Bridges are numbered along the chain shown (N, C = ends). Roman numbers before positions name the chains, in order. [ ]: non-standard residue; d: D form. Leu(3R-OH) = CC(C)[C@@H](O)[C@H](N)C(=O)O; d(pGlu) = O=C1CC[C@H](C(=O)O)N1; Thr(ol) = C[C@@H](O)[C@H](N)CO; pGlu = O=C1CC[C@@H](C(=O)O)N1; Pen = CC(C)(S)[C@H](N)C(=O)O; Tle = CC(C)(C)[C@H](N)C(=O)O; dDab = NCC[C@@H](N)C(=O)O; Nle = CCCC[C@H](N)C(=O)O; Dab = NCC[C@H](N)C(=O)O; Dap = NC[C@H](N)C(=O)O

Legend:
Format in all cases: cell-based
[1] = system: Acinetobacter baumannii 872842; details: 872842
Method in brief: (§1)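 CLSI broth microdilution: inoculum ~10^6 CFU/mL in cation-adjusted Mueller-Hinton II broth, with peptide in serial two-fold dilutions plus Polysorbate 80 (0.002% final). MIC (μg/mL) is the lowest concentration without visible growth after 18-20 hours at 35° C.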

[2] = system: Acinetobacter baumannii DSM 30008; details: DSM 30008
Method in brief: as §1

[3] = system: Enterobacter cloacae 848840; details: 848840
Method in brief: as §1

[4] = system: Escherichia coli 926415; details: 926415
Method in brief: as §1

[5] = system: Escherichia coli ATCC 25922; details: ATCC 25922
Method in brief: as §1

[6] = system: Klebsiella pneumoniae 968733; details: 968733
Method in brief: as §1

[7] = system: Klebsiella pneumoniae SSI #3010; details: SSI #3010
Method in brief: as §1

[8] = system: Pseudomonas aeruginosa ATCC 27853; details: ATCC 27853
Method in brief: as §1

[9] = system: human red blood cells (hRBC); assay: Hemolysis; details: red cells of human, 1 h, 200
Method in brief: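 Washed fresh hRBC (20% v/v) were incubated with peptides at 200 μg/mL for 1 h at 37° C with shaking at 300 rpm. Supernatant OD540 was read after centrifugation and dilution, blank-corrected, and expressed as percent of the 2% Triton X-100 (100% lysis) control; PBS with 10% water gave 0%.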

MIC [1]	MIC [2]	MIC [3]	MIC [4]	MIC [5]	MIC [6]	MIC [7]	MIC [8]	SMILES	Hemolysis at 200 μg/mL [9]
0.03125 µg/mL (≈ 0.0126 µM)	0.03125 µg/mL (≈ 0.0126 µM)	0.0625 µg/mL (≈ 0.0253 µM)	0.125 µg/mL (≈ 0.0506 µM)	0.03125 µg/mL (≈ 0.0126 µM)	0.25 µg/mL (≈ 0.101 µM)	0.0625 µg/mL (≈ 0.0253 µM)	0.125 µg/mL (≈ 0.0506 µM)	CCCC[C@H](NC(C)=O)C(=O)N[C@H](C(=O)N[C@@H](Cc1ccc(O)cc1)C(=O)N[C@H]1CSSC[C@@H](C(=O)N[C@H](C(=O)N[C@H](C(=O)N[C@H](C(N)=O)[C@@H](C)O)[C@@H](C)O)[C@@H](C)CC)NC(=O)[C@H](Cc2c[nH]c3ccccc23)NC(=O)[C@H](CO)NC(=O)[C@@H](CCN)NC(=O)[C@H](CCC(=O)N[C@@H](CCN)C(=O)N[C@H](C(=O)N[C@@H](CN)C(=O)N[C@H]2CCNC(=O)[C@H]([C@@H](C)O)NC(=O)[C@H](CCN)NC(=O)[C@H](CCN)NC(=O)[C@H]([C@H](O)C(C)C)NC(=O)[C@@H](CC(C)C)NC(=O)[C@H](CCN)NC2=O)[C@@H](C)O)NC1=O)[C@@H](C)O [Ex. 223] (I: Ac-[Nle]TYCE[dDab]SWCITT-NH2 / II: [Dab]T[Dap][Dab][Dab][dL][Leu(3R-OH)][Dab][Dab]T; disulfide I:4-I:9; amide I:5-II:N; lactam II:4-II:C)	<1%
0.0625 µg/mL (≈ 0.0254 µM)	0.0625 µg/mL (≈ 0.0254 µM)	0.125 µg/mL (≈ 0.0509 µM)	0.125 µg/mL (≈ 0.0509 µM)	0.03125 µg/mL (≈ 0.0127 µM)	0.25 µg/mL (≈ 0.102 µM)	0.125 µg/mL (≈ 0.0509 µM)	0.125 µg/mL (≈ 0.0509 µM)	CC(=O)N[C@H](C(=O)N[C@H](C(=O)N[C@@H](Cc1ccc(O)cc1)C(=O)N[C@H]1CSSC(C)(C)[C@@H](C(=O)N[C@H](C(=O)N[C@@H](CO)C(=O)N[C@H](C(N)=O)[C@@H](C)O)C(C)(C)C)NC(=O)[C@H](Cc2c[nH]c3ccccc23)NC(=O)[C@H](CCN)NC(=O)[C@@H](CCN)NC(=O)[C@H](CCC(=O)N[C@@H](CCN)C(=O)N[C@H](C(=O)N[C@@H](CN)C(=O)N[C@H]2CCNC(=O)[C@H]([C@@H](C)O)NC(=O)[C@H](CCN)NC(=O)[C@H](CCN)NC(=O)[C@H]([C@@H](C)O)NC(=O)[C@@H](CC(C)C)NC(=O)[C@H](CCN)NC2=O)[C@@H](C)O)NC1=O)[C@@H](C)O)C(C)C [Ex. 224] (I: Ac-VTYCE[dDab][Dab]W[Pen][Tle]ST-NH2 / II: [Dab]T[Dap][Dab][Dab][dL]T[Dab][Dab]T; disulfide I:4-I:9; amide I:5-II:N; lactam II:4-II:C)	1%
0.25 µg/mL (≈ 0.0989 µM)	0.125 µg/mL (≈ 0.0495 µM)	0.125 µg/mL (≈ 0.0495 µM)	0.25 µg/mL (≈ 0.0989 µM)	0.0625 µg/mL (≈ 0.0247 µM)	1 µg/mL (≈ 0.396 µM)	0.0625 µg/mL (≈ 0.0247 µM)	0.125 µg/mL (≈ 0.0495 µM)	CC(=O)N[C@H](C(=O)N[C@H](C(=O)N[C@@H](Cc1ccc(O)cc1)C(=O)N[C@H]1CSSC(C)(C)[C@@H](C(=O)N[C@H](C(=O)N[C@@H](CCC(=O)O)C(=O)N[C@H](C(N)=O)[C@@H](C)O)C(C)(C)C)NC(=O)[C@H](Cc2c[nH]c3ccccc23)NC(=O)[C@H](CCN)NC(=O)[C@@H](CCN)NC(=O)[C@H](CCC(=O)N[C@@H](CCN)C(=O)N[C@H](C(=O)N[C@@H](CN)C(=O)N[C@H]2CCNC(=O)[C@H]([C@@H](C)O)NC(=O)[C@H](CCN)NC(=O)[C@H](CCN)NC(=O)[C@H]([C@H](O)C(C)C)NC(=O)[C@@H](CC(C)C)NC(=O)[C@H](CCN)NC2=O)[C@@H](C)O)NC1=O)[C@@H](C)O)C(C)C [Ex. 225] (I: Ac-VTYCE[dDab][Dab]W[Pen][Tle]ET-NH2 / II: [Dab]T[Dap][Dab][Dab][dL][Leu(3R-OH)][Dab][Dab]T; disulfide I:4-I:9; amide I:5-II:N; lactam II:4-II:C)	<1%
0.125 µg/mL (≈ 0.0512 µM)	0.03125 µg/mL (≈ 0.0128 µM)	0.125 µg/mL (≈ 0.0512 µM)	0.125 µg/mL (≈ 0.0512 µM)	0.03125 µg/mL (≈ 0.0128 µM)	0.5 µg/mL (≈ 0.205 µM)	0.125 µg/mL (≈ 0.0512 µM)	0.125 µg/mL (≈ 0.0512 µM)	CC(=O)N[C@H](C(=O)N[C@@H](CN)C(=O)N[C@@H](Cc1ccc(O)cc1)C(=O)N[C@H]1CSSC[C@@H](C(=O)N[C@H](C(=O)N[C@@H](CC(=O)O)C(=O)N[C@H](C(N)=O)[C@@H](C)O)C(C)(C)C)NC(=O)[C@H](Cc2c[nH]c3ccccc23)NC(=O)[C@H](CO)NC(=O)[C@@H](CCN)NC(=O)[C@H](CCC(=O)N[C@@H](CCN)C(=O)N[C@H](C(=O)N[C@@H](CN)C(=O)N[C@H]2CCNC(=O)[C@H]([C@@H](C)O)NC(=O)[C@H](CCN)NC(=O)[C@H](CCN)NC(=O)[C@H](CC(C)C)NC(=O)[C@@H](CC(C)C)NC(=O)[C@H](CCN)NC2=O)[C@@H](C)O)NC1=O)C(C)C [Ex. 227] (I: Ac-V[Dap]YCE[dDab]SWC[Tle]DT-NH2 / II: [Dab]T[Dap][Dab][Dab][dL]L[Dab][Dab]T; disulfide I:4-I:9; amide I:5-II:N; lactam II:4-II:C)	<1%
4 µg/mL (≈ 1.61 µM)	1 µg/mL (≈ 0.403 µM)	8 µg/mL (≈ 3.22 µM)	1 µg/mL (≈ 0.403 µM)	0.5 µg/mL (≈ 0.201 µM)	1 µg/mL (≈ 0.403 µM)	0.25 µg/mL (≈ 0.101 µM)	0.25 µg/mL (≈ 0.101 µM)	CC(=O)N[C@@H]1C(=O)N[C@@H]([C@@H](C)O)C(=O)N[C@@H](Cc2ccc(O)cc2)C(=O)N[C@@H](CCN)C(=O)N[C@@H](CCC(=O)N[C@@H](CCN)C(=O)N[C@H](C(=O)N[C@@H](CN)C(=O)N[C@H]2CCNC(=O)[C@H]([C@@H](C)O)NC(=O)[C@H](CCN)NC(=O)[C@H](CCN)NC(=O)[C@H](CC(C)C)NC(=O)[C@@H](CC(C)C)NC(=O)[C@H](CCN)NC2=O)[C@@H](C)O)C(=O)N[C@H](CCN)C(=O)N[C@@H](CCN)C(=O)N[C@@H](Cc2c[nH]c3ccccc23)C(=O)N[C@@H](CCC(=O)O)C(=O)N[C@@H](C(C)(C)C)C(=O)N[C@@H](C)C(=O)N[C@H](C(N)=O)CSSC1(C)C [Ex. 228] (I: Ac-[Pen]TY[Dab]E[dDab][Dab]WE[Tle]AC-NH2 / II: [Dab]T[Dap][Dab][Dab][dL]L[Dab][Dab]T; disulfide I:1-I:12; amide I:5-II:N; lactam II:4-II:C)	<1%
0.0625 µg/mL (≈ 0.0252 µM)	0.0625 µg/mL (≈ 0.0252 µM)	0.125 µg/mL (≈ 0.0503 µM)	0.0625 µg/mL (≈ 0.0252 µM)	0.0625 µg/mL (≈ 0.0252 µM)	0.125 µg/mL (≈ 0.0503 µM)	0.125 µg/mL (≈ 0.0503 µM)	0.125 µg/mL (≈ 0.0503 µM)	CC(C)C[C@@H]1NC(=O)[C@@H](CC(C)C)NC(=O)[C@H](CCN)NC(=O)[C@@H](NC(=O)[C@H](CN)NC(=O)[C@@H](NC(=O)[C@H](CCN)NC(=O)CC[C@@H]2NC(=O)[C@H](CN)NC(=O)[C@H](Cc3ccc(O)cc3)NC(=O)[C@@H](NC(=O)[C@@H](NC(=O)[C@@H]3CCC(=O)N3)C(C)C)CSSC[C@@H](C(=O)N[C@H](CO)[C@@H](C)O)NC(=O)[C@H](C(C)(C)C)NC(=O)[C@H](CO)NC(=O)[C@H](Cc3c[nH]c4ccccc34)NC(=O)[C@H]([C@@H](C)O)NC(=O)[C@@H](CCN)NC2=O)[C@@H](C)O)CCNC(=O)[C@H]([C@@H](C)O)NC(=O)[C@H](CCN)NC(=O)[C@H](CCN)NC1=O [Ex. 232] (I: [pGlu]VCY[Dap]E[dDab]TWS[Tle]C[Thr(ol)] / II: [Dab]T[Dap][Dab][Dab][dL]L[Dab][Dab]T; disulfide I:3-I:12; amide I:6-II:N; lactam II:4-II:C)	<1%
0.0625 µg/mL (≈ 0.0252 µM)	0.0625 µg/mL (≈ 0.0252 µM)	0.125 µg/mL (≈ 0.0503 µM)	0.0625 µg/mL (≈ 0.0252 µM)	0.03125 µg/mL (≈ 0.0126 µM)	0.0625 µg/mL (≈ 0.0252 µM)	0.0625 µg/mL (≈ 0.0252 µM)	0.125 µg/mL (≈ 0.0503 µM)	CC(C)C[C@@H]1NC(=O)[C@@H](CC(C)C)NC(=O)[C@H](CCN)NC(=O)[C@@H](NC(=O)[C@H](CN)NC(=O)[C@@H](NC(=O)[C@H](CCN)NC(=O)CC[C@@H]2NC(=O)[C@H](CN)NC(=O)[C@H](Cc3ccc(O)cc3)NC(=O)[C@@H](NC(=O)[C@@H](NC(=O)[C@H]3CCC(=O)N3)C(C)C)CSSC[C@@H](C(=O)N[C@H](CO)[C@@H](C)O)NC(=O)[C@H](C(C)(C)C)NC(=O)[C@H](CO)NC(=O)[C@H](Cc3c[nH]c4ccccc34)NC(=O)[C@H]([C@@H](C)O)NC(=O)[C@@H](CCN)NC2=O)[C@@H](C)O)CCNC(=O)[C@H]([C@@H](C)O)NC(=O)[C@H](CCN)NC(=O)[C@H](CCN)NC1=O [Ex. 233] (I: [d(pGlu)]VCY[Dap]E[dDab]TWS[Tle]C[Thr(ol)] / II: [Dab]T[Dap][Dab][Dab][dL]L[Dab][Dab]T; disulfide I:3-I:12; amide I:6-II:N; lactam II:4-II:C)	<1%
